Consider 22 compounds from patent publication US20260085062A1, “NOVEL COMPOUNDS AS CK2 INHIBITORS” (Cambridge Enterprise Limited, priority 2022, published 2026).

The target in one test is T1, CK2α (Homo sapiens, UniProt P68400).
T1 construct: CK2α (residues 2-329) was produced in Escherichia coli BL21 (DE3) for kinase activity screening; His6 (N, cleaved yes); made in house; host or cells: Escherichia coli BL21 (DE3)
T1 sequence (P68400 2-329): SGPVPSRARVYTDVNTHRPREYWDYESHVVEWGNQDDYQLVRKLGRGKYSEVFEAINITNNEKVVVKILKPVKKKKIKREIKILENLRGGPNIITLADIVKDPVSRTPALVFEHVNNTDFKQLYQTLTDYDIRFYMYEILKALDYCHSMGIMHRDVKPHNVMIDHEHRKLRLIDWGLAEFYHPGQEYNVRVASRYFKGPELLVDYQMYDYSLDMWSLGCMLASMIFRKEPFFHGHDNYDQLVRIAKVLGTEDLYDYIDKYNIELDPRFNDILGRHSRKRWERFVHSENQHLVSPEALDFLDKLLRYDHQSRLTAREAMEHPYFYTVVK
As to the kind of experiment: Biochemical assay for inhibitors of CK2α kinase activity (ADP-Glo). The note with it: 0.2 nM CK2α, 50 μM peptide substrate, 15 μM ATP, read-out: Assay 1: CK2α Enzyme IC50. A general note: ADP-Glo turns the ADP formed in a reaction into a luminescent signal.

Another test deals with T2, CLK2 (Homo sapiens, UniProt P49760).
T2 construct: purchased Carna Biosciences 04-127
T2 sequence (P49760 whole entry): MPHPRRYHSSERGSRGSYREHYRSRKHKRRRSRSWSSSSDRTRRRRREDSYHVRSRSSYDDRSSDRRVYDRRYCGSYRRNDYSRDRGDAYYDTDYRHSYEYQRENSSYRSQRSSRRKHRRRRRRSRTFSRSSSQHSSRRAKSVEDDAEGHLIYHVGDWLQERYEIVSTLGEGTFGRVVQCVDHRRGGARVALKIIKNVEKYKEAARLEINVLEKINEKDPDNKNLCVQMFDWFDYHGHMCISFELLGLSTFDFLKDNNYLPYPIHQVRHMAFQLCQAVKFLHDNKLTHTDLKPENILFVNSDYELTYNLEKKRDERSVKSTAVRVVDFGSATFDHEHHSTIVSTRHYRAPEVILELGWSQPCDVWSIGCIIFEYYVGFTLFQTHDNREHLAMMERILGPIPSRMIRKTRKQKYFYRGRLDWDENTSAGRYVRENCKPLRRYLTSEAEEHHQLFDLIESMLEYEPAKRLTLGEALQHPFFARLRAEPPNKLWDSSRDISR
The test can be described thus: Biochemical assay for inhibitors of CLK2 kinase activity (ADP-Glo). The following applies: 20 nM CLK2, 50 μM peptide substrate, 100 μM ATP, read-out: Assay 2: CLK2 Enzyme IC50.

The target in the next test is T3, intracellular CK2α (Homo sapiens, UniProt P19784).
T3 construct: host or cells: HCT116 (ATCC CCL-247)
T3 sequence (P19784 whole entry): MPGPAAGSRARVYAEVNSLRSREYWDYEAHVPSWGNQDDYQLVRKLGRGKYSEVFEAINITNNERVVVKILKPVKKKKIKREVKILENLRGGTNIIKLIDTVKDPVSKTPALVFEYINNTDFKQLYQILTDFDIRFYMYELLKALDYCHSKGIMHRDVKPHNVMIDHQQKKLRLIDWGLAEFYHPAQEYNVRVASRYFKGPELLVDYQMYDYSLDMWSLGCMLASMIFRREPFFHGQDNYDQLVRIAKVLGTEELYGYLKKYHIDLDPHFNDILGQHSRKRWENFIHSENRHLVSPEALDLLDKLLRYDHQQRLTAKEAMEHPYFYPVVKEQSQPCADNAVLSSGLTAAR
As to the kind of experiment: Cell-based NanoBRET assay for inhibitor binding to intracellular CK2α. The following applies: HCT116 cells transiently transfected with CSNK2A2-NanoLuc fusion vector; Tracer K-5; 2 h; read-out: Assay 3: NanoBRET ™ assay for binding to intracellular CK2α. The essentials:
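Apparent affinity came from BRET ratio (acceptor/donor ×1,000), with donor read at 450 nm and acceptor at 610 or 630 nm. Compounds competed off a tracer added at fixed concentration to cells carrying a NanoLuc-CK2α fusion.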
(In general: Bioluminescence resonance energy transfer reports proximity on the nanometre scale.)

On to `COc1cc(-c2cc(NCCOCCCCNCc3cc4cc(C(F)(F)F)ccc4[nH]3)c3cn[nH]c3c2)ccn1` [Example 87, 6-(2-methoxypyridin-4-yl)-N-(2-(4-(((5-(trifluoromethyl)-1H-indol-2-yl)methyl)amino)butoxy)ethyl)-1H-indazol-4-amine], for which the IC50 at CK2α is 12.3 nM; on CLK2, 1760 nM; at intracellular CK2α, 1300 nM.
For the compound `COC(=O)CCc1cc(NCCOCCCCNCc2cc3cc(C(F)(F)F)ccc3[nH]2)c2cn[nH]c2c1` [Example 88, methyl 3-(4-((2-(4-(((5-(trifluoromethyl)-1H-indol-2-yl)methyl)amino)butoxy)ethyl)amino)-1H-indazol-6-yl)propanoate], the IC50 on CK2α is more than 1000 nM; at CLK2, 41300 nM; at intracellular CK2α, more than 50000 nM.
Take `O=C(O)CCc1cc(NCCOCCCCNCc2cc3cc(C(F)(F)F)ccc3[nH]2)c2cn[nH]c2c1` [Example 89, 3-(4-((2-(4-(((5-(trifluoromethyl)-1H-indol-2-yl)methyl)amino)butoxy)ethyl)amino)-1H-indazol-6-yl)propanoic acid]: the IC50 on CK2α is more than 1000 nM; at CLK2, 18400 nM; at intracellular CK2α, more than 50000 nM.
Take `O=C(CCNCc1ccc(-c2ccccc2)c(Cl)c1)NCCCNc1cc(C2CCOCC2)cc2[nH]ncc12` [Example 90, 3-(((2-chloro-[1,1′-biphenyl]-4-yl)methyl)amino)-N-(3-((6-(tetrahydro-2H-pyran-4-yl)-1H-indazol-4-yl)amino)propyl)propanamide]: the IC50 on CK2α amounted to 212 nM; on CLK2, 8780 nM; on intracellular CK2α it was 10600 nM.
In the case of `Cc1nc[nH]c1-c1cc(NCCCNC(=O)CCNCc2ccc(-c3ccccc3)c(Cl)c2)c2cn[nH]c2c1` [Example 91, 3-(((2-chloro-[1,1′-biphenyl]-4-yl)methyl)amino)-N-(3-((6-(4-methyl-1H-imidazol-5-yl)-1H-indazol-4-yl)amino)propyl)propanamide], the figures for the IC50 at CK2α, on CLK2 and at intracellular CK2α were 4.17 nM, 979 nM and 4590 nM, respectively.
For `COc1n[nH]cc1-c1cc(NCCOCCCCNCc2cc3cc(C(F)(F)F)ccc3[nH]2)c2cn[nH]c2c1` [Example 92, 6-(3-methoxy-1H-pyrazol-4-yl)-N-(2-(4-(((5-(trifluoromethyl)-1H-indol-2-yl)methyl)amino)butoxy)ethyl)-1H-indazol-4-amine] the same measures were 19.1 nM, 24.1 nM and 1780 nM.
In the case of `FC(F)(F)c1ccc2[nH]c(CNCCCCOCCNc3cc(-c4ccnnc4)cc4[nH]ncc34)cc2c1` [Example 93, 6-(pyridazin-4-yl)-N-(2-(4-(((5-(trifluoromethyl)-1H-indol-2-yl)methyl)amino)butoxy)ethyl)-1H-indazol-4-amine], the results for the IC50 on CK2α, at CLK2 and at intracellular CK2α were 0.77 nM, 569 nM and 180 nM, respectively.
For `FC(F)(F)c1ccc2[nH]c(CNCCCCOCCNc3cccc4[nH]ncc34)cc2c1` [Example 94] the same measures were 203 nM, 5790 nM and 29300 nM.
For the compound `FC(F)(F)c1ccc2[nH]c(CNCCCCOCCNc3cc(-c4ccncn4)cc4[nH]ncc34)cc2c1` [Example 95, 6-(pyrimidin-4-yl)-N-(2-(4-(((5-(trifluoromethyl)-1H-indol-2-yl)methyl)amino)butoxy)ethyl)-1H-indazol-4-amine], the IC50 worked out at 6.56 nM at CK2α, 203 nM on CLK2 and 336 nM on intracellular CK2α.
Turning to `N#Cc1cc(NCCOCCCCNCc2cc3cc(C(F)(F)F)ccc3[nH]2)c2cn[nH]c2c1` [Example 96, 4-((2-(4-(((5-(trifluoromethyl)-1H-indol-2-yl)methyl)amino)butoxy)ethyl)amino)-1H-indazole-6-carbonitrile], the IC50 on CK2α amounted to 27 nM; on CLK2, 227 nM; at intracellular CK2α it was 2000 nM.
For `FC(F)(F)c1ccc2[nH]c(CNCCCCOCCNc3cc(-c4cnoc4)cc4[nH]ncc34)cc2c1` [Example 97, 6-(isoxazol-4-yl)-N-(2-(4-(((5-(trifluoromethyl)-1H-indol-2-yl)methyl)amino)butoxy)ethyl)-1H-indazol-4-amine] the same measures were 1.42 nM, 104 nM and 321 nM.
Consider `c1cc2[nH]c(CNCCCCOCCNc3cc(-c4cnoc4)cc4[nH]ncc34)cc2cc1OC1CCC1` [Example 98, N-(2-(4-(((5-cyclobutoxy-1H-indol-2-yl)methyl)amino)butoxy)ethyl)-6-(isoxazol-4-yl)-1H-indazol-4-amine], for which the values for the IC50 at CK2α, on CLK2 and on intracellular CK2α were 0.82 nM, 122 nM and 105 nM, respectively.
For the compound `FC(F)(F)Oc1ccc(CNCCCCOCCNc2cc(-c3ccnnc3)cc3[nH]nnc23)cc1Cl` [Example 99, N-(2-(4-((3-chloro-4-(trifluoromethoxy)benzyl)amino)butoxy)ethyl)-6-(pyridazin-4-yl)-1H-benzo[d][1,2,3]triazol-4-amine], the IC50 on CK2α was determined as 20.1 nM; on CLK2, 28000 nM; on intracellular CK2α, 1010 nM.
Regarding `FC(F)(F)c1ccc2[nH]c(CNCCCCOCCNc3cc(-c4ccnnc4)cc4[nH]nnc34)cc2c1` [Example 100, 6-(pyridazin-4-yl)-N-(2-(4-(((5-(trifluoromethyl)-1H-indol-2-yl)methyl)amino)butoxy)ethyl)-1H-benzo[d][1,2,3]triazol-4-amine], the IC50 at CK2α worked out at 22.3 nM; at CLK2 it was 22900 nM; on intracellular CK2α it was 1410 nM.
For the compound `FC(F)(F)c1ccc2[nH]c(CNCCCCOCCOc3cc(-c4ccnnc4)cc4[nH]nnc34)cc2c1` [Example 101, 4-(2-((6-(pyridazin-4-yl)-1H-benzo[d][1,2,3]triazol-4-yl)oxy)ethoxy)-N-((5-(trifluoromethyl)-1H-indol-2-yl)methyl)butan-1-amine], the IC50 at CK2α is 223 nM; at CLK2, 48600 nM; at intracellular CK2α it was more than 50000 nM.
For `FC(F)(F)Oc1ccc(CNCCCCOCCOc2cc(-c3ccnnc3)cc3[nH]nnc23)cc1Cl` [Example 102, N-(3-chloro-4-(trifluoromethoxy)benzyl)-4-(2-((6-(pyridazin-4-yl)-1H-benzo[d][1,2,3]triazol-4-yl)oxy)ethoxy)butan-1-amine] the same measures were 393 nM, 43000 nM and more than 50000 nM.
As to `N#CCc1cc(F)cc(CNCCCCOC2CN(c3cc(-n4cnnc4)cc4[nH]ncc34)C2)c1` [Example 103, 2-(3-(((4-((1-(6-(4H-1,2,4-triazol-4-yl)-1H-indazol-4-yl)azetidin-3-yl)oxy)butyl)amino)methyl)-5-fluorophenyl)acetonitrile], the figures for the IC50 at CK2α, on CLK2 and at intracellular CK2α were 26.5 nM, 129 nM and 10700 nM, respectively.
Consider `OCc1cc(CNCCCCOC2CN(c3cc(-n4cnnc4)cc4[nH]ncc34)C2)cc(C(F)(F)F)c1` [Example 104, (3-(((4-((1-(6-(4H-1,2,4-triazol-4-yl)-1H-indazol-4-yl)azetidin-3-yl)oxy)butyl)amino)methyl)-5-(trifluoromethyl)phenyl)methanol], for which the IC50 at CK2α is 64.2 nM; at CLK2, 264 nM; on intracellular CK2α it was 14900 nM.
As to `N#CCc1cc(CNCCCCOC2CN(c3cc(-n4cnnc4)cc4[nH]ncc34)C2)cc(C(F)(F)F)c1` [Example 105, 2-(3-(((4-((1-(6-(4H-1,2,4-triazol-4-yl)-1H-indazol-4-yl)azetidin-3-yl)oxy)butyl)amino)methyl)-5-(trifluoromethyl)phenyl)acetonitrile], the IC50 turned out to be 21.6 nM on CK2α, 167 nM on CLK2 and 5340 nM at intracellular CK2α.
For the compound `Cc1cc(CC#N)cc(CNCCCCOC2CN(c3cc(-n4cnnc4)cc4[nH]ncc34)C2)c1` [Example 106, 2-(3-(((4-((1-(6-(4H-12,4-triazol-4-yl)-1H-indazol-4-yl)azetidin-3-yl)oxy)butyl)amino)methyl)-5-methylphenyl)acetonitrile], the IC50 at CK2α is 41.7 nM; on CLK2, 368 nM; at intracellular CK2α, 26600 nM.
In the case of `FC(F)(F)Oc1ccc(CNCCCCOC2CN(c3cc(-c4ccnnc4)cc4[nH]ncc34)C2)cc1Cl` [Example 107, N-(3-chloro-4-(trifluoromethoxy)benzyl)-4-((1-(6-(pyridazin-4-yl)-1H-indazol-4-yl)azetidin-3-yl)oxy)butan-1-amine], the values for the IC50 on CK2α, at CLK2 and on intracellular CK2α were 28.1 nM, 2640 nM and 3740 nM, respectively.
For `Fc1cc(CNCCCCOC2CN(c3cc(-c4ccnnc4)cc4[nH]ncc34)C2)ccc1OC(F)(F)F` [Example 108, N-(3-fluoro-4-(trifluoromethoxy)benzyl)-4-((1-(6-(pyridazin-4-yl)-1H-indazol-4-yl)azetidin-3-yl)oxy) butan-1-amine] the same measures were 20.9 nM, 2730 nM and 2380 nM.
